Key:
[1] = target: T1, thyroid peroxidase (TPO), rat thyroid microsomes (Rattus norvegicus, UniProt P14650); test: TPO activity assay, MIT to DIT monoiodination, LC-MS/MS; assay type: biochemical; details: result in words
T1 sequence (P14650 32-914): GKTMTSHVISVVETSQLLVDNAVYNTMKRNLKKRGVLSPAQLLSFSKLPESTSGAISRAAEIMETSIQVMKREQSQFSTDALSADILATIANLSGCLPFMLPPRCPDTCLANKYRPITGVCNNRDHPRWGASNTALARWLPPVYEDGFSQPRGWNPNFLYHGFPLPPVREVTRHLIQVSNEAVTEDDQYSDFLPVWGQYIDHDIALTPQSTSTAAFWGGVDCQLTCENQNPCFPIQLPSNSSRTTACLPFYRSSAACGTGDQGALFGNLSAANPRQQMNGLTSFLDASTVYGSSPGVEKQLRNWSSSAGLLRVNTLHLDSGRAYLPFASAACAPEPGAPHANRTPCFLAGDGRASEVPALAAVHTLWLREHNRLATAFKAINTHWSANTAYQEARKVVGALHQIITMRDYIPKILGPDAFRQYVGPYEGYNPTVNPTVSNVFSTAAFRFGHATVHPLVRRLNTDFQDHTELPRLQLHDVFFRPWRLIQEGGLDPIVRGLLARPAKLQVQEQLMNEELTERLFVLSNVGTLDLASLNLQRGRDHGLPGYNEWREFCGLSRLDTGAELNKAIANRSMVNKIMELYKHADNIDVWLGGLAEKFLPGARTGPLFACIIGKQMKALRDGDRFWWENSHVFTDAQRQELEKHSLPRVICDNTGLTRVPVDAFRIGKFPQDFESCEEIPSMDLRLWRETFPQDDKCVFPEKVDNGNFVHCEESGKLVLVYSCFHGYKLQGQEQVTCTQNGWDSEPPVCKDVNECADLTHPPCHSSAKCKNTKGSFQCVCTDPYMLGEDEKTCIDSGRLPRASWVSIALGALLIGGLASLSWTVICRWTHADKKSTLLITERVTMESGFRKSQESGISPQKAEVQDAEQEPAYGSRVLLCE

[2] = target: T1, thyroid peroxidase (TPO), rat thyroid microsomes; test: Battery of TPO assays, summary of IC50 across reactions; assay type: biochemical

- IC50 [2]: 19.7 to 57.3 µM
SMILES: O=c1c(-c2ccc(O)cc2)coc2cc(O)ccc12 [DZN, Daidzein]
- Effect on MIT to DIT iodination [1]: no adverse effects

Reference: paper PMC8320612 (Current Research in Toxicology, 2021)
